In ChEMBL document CHEMBL1201861, “Genomics of Drug Sensitity in Cancer screening data, Wellcome Trust Sanger Institute”:
pIC50: −log10 of the molar value.

Experiments:
Assay in all cases: cells
[1] = tested on: SNU1; format: functional, cell-based, Homo sapiens; details: Homo sapiens, SNU1;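 further: growth inhibition of human NCI-SNU-1 cells, measured with a cell viability assay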
Description: SANGER: Inhibition of human NCI-SNU-1 cell growth in a cell viability assay.

[2] = tested on: TE-8; format: functional, cell-based, Homo sapiens; details: Homo sapiens, TE-8;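 further: growth inhibition of TE-8 cells, measured with a cell viability readout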
Description: SANGER: Inhibition of human TE-8 cell growth in a cell viability assay.

[3] = tested on: U-87 MG; format: functional, cell-based, Homo sapiens, U-87MG ATCC; details: Homo sapiens, U-87 MG;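 further: growth inhibition of the cells measured with a viability assay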
Description: SANGER: Inhibition of human U-87-MG cell growth in a cell viability assay.

[4] = tested on: D283 Med; format: functional, cell-based, Homo sapiens; details: Homo sapiens, D283 Med
Description: SANGER: Inhibition of human D-283MED cell growth in a cell viability assay.

[5] = tested on: SK-NEP-1; format: functional, cell-based, Homo sapiens; details: Homo sapiens, SK-NEP-1;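 further: growth inhibition of human SK-NEP-1 cells, read out by a cell viability assay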
Description: SANGER: Inhibition of human SK-NEP-1 cell growth in a cell viability assay.

[6] = tested on: P30-OHK; format: functional, cell-based, Homo sapiens; details: Homo sapiens, P30-OHK;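 further: growth inhibition of the P30-OHK cell line, read out with a cell viability assay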
Description: SANGER: Inhibition of human P30-OHK cell growth in a cell viability assay.

[7] = tested on: CTV-1; format: functional, cell-based, Homo sapiens; details: Homo sapiens, CTV-1;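 further: growth inhibition of the cell line, read out with a cell viability assay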
Description: SANGER: Inhibition of human CTV-1 cell growth in a cell viability assay.

[8] = tested on: BT-474; format: functional, cell-based, Homo sapiens; details: Homo sapiens, BT-474
Description: SANGER: Inhibition of human BT-474 cell growth in a cell viability assay.

[9] = tested on: NH-12; format: functional, cell-based, Homo sapiens; details: Homo sapiens, NH-12;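 further: growth inhibition of NH-12 cells, read out with a cell viability assay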
Description: SANGER: Inhibition of human NH-12 cell growth in a cell viability assay.

[10] = tested on: HCC1187; format: functional, cell-based, Homo sapiens; details: Homo sapiens, HCC1187;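 further: growth inhibition of HCC1187 cells, read out with a cell viability assay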
Description: SANGER: Inhibition of human HCC1187 cell growth in a cell viability assay.

[11] = tested on: SW684; format: functional, cell-based, Homo sapiens; details: Homo sapiens, SW684;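 further: growth inhibition of human SW684 cells, measured by a cell viability assay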
Description: SANGER: Inhibition of human SW684 cell growth in a cell viability assay.

[12] = tested on: IA-LM; format: functional, cell-based, Homo sapiens; details: Homo sapiens, IA-LM;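 further: cell viability assay measuring growth inhibition of human IA-LM cells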
Description: SANGER: Inhibition of human IA-LM cell growth in a cell viability assay.

[13] = tested on: NB13; format: functional, cell-based, Homo sapiens; details: Homo sapiens, NB13;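 further: cell viability readout measuring growth inhibition of human NB13 cells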
Description: SANGER: Inhibition of human NB13 cell growth in a cell viability assay.

[14] = tested on: AM-38; format: functional, cell-based, Homo sapiens; details: Homo sapiens, AM-38;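 further: growth inhibition of AM-38 cells of human origin, read out by a cell viability assay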
Description: SANGER: Inhibition of human AM-38 cell growth in a cell viability assay.

[15] = tested on: SW 954; format: functional, cell-based, Homo sapiens; details: Homo sapiens, SW 954;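 further: growth inhibition of SW954 human cancer cells, read out as cell viability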
Description: SANGER: Inhibition of human SW954 cell growth in a cell viability assay.

[16] = tested on: EC-GI-10; format: functional, cell-based, Homo sapiens; details: Homo sapiens, EC-GI-10
Description: SANGER: Inhibition of human EC-GI-10 cell growth in a cell viability assay.

[17] = tested on: DJM-1; format: functional, cell-based, Homo sapiens; details: Homo sapiens, DJM-1;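 further: growth inhibition of human DJM-1 cells, read out by a cell viability assay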
Description: SANGER: Inhibition of human DJM-1 cell growth in a cell viability assay.

[18] = tested on: NCI-H209; format: functional, cell-based, Homo sapiens; details: Homo sapiens, NCI-H209;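 further: growth inhibition of human NCI-H209 cells, measured by a cell viability assay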
Description: SANGER: Inhibition of human NCI-H209 cell growth in a cell viability assay.

[19] = tested on: PSN1; format: functional, cell-based, Homo sapiens; details: Homo sapiens, PSN1;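 further: suppression of growth of human PSN1 cells, read out by a cell viability assay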
Description: SANGER: Inhibition of human PSN1 cell growth in a cell viability assay.

[20] = tested on: NCI-H2126; format: functional, cell-based, Homo sapiens; details: Homo sapiens, NCI-H2126;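 further: growth inhibition of the cancer cell line, determined with a cell viability readout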
Description: SANGER: Inhibition of human NCI-H2126 cell growth in a cell viability assay.

[21] = tested on: TE-9; format: functional, cell-based, Homo sapiens; details: Homo sapiens, TE-9;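 further: cell growth inhibition, measured with a cell viability readout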
Description: SANGER: Inhibition of human TE-9 cell growth in a cell viability assay.

[22] = tested on: SBC-1; format: functional, cell-based, Homo sapiens; details: Homo sapiens, SBC-1;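 further: cell viability assay measuring growth inhibition of the SBC-1 cell line, IC50 being the concentration that halves growth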
Description: SANGER: Inhibition of human SBC-1 cell growth in a cell viability assay.

[23] = tested on: SCC-15; format: functional, cell-based, Homo sapiens; details: Homo sapiens, SCC-15;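 further: growth inhibition of SCC-15 cells, read out with a cell viability assay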
Description: SANGER: Inhibition of human SCC-15 cell growth in a cell viability assay.

[24] = tested on: COLO-684; format: functional, cell-based, Homo sapiens; details: Homo sapiens, COLO-684
Description: SANGER: Inhibition of human COLO-684 cell growth in a cell viability assay.

[25] = tested on: MSTO-211H; format: functional, cell-based, Homo sapiens; details: Homo sapiens, MSTO-211H
Description: SANGER: Inhibition of human MSTO-211H cell growth in a cell viability assay.

[26] = tested on: GCIY; format: functional, cell-based, Homo sapiens; details: Homo sapiens, GCIY;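 further: growth inhibition of the human GCIY cell line, read out by a cell viability assay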
Description: SANGER: Inhibition of human GCIY cell growth in a cell viability assay.

[27] = tested on: KS-1; format: functional, cell-based, Homo sapiens; details: Homo sapiens, KS-1;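 further: growth inhibition of KS-1 cells, read out with a cell viability assay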
Description: SANGER: Inhibition of human KS-1 cell growth in a cell viability assay.

[28] = tested on: EW-16; format: functional, cell-based, Homo sapiens; details: Homo sapiens, EW-16;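 further: growth inhibition of human EW-16 cells, read out as cell viability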
Description: SANGER: Inhibition of human EW-16 cell growth in a cell viability assay.

[29] = tested on: NCI-H69; format: functional, cell-based, Homo sapiens; details: Homo sapiens, NCI-H69;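 further: growth inhibition of the cell line, read out with a cell viability assay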
Description: SANGER: Inhibition of human NCI-H69 cell growth in a cell viability assay.

[30] = tested on: 697; format: functional, cell-based, Homo sapiens; details: Homo sapiens
Description: SANGER: Inhibition of human 697 cell growth in a cell viability assay.

[31] = tested on: SNU-C2B; format: functional, cell-based, Homo sapiens; details: Homo sapiens, SNU-C2B;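 further: cell viability readout used to measure compound-driven suppression of SNU-C2B cell proliferation, IC50 marking half-maximal growth inhibition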
Description: SANGER: Inhibition of human SNU-C2B cell growth in a cell viability assay.

[32] = tested on: LB2518-MEL; format: functional, cell-based, Homo sapiens; details: Homo sapiens, LB2518-MEL;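 further: growth inhibition of human LB2518-MEL cells, measured with a cell viability assay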
Description: SANGER: Inhibition of human LB2518-MEL cell growth in a cell viability assay.

[33] = tested on: CW-2; format: functional, cell-based, Homo sapiens; details: Homo sapiens, CW-2;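 further: growth inhibition of CW-2 cells, read out by a cell viability assay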
Description: SANGER: Inhibition of human CW-2 cell growth in a cell viability assay.

[34] = tested on: MHH-PREB-1; format: functional, cell-based, Homo sapiens; details: Homo sapiens, MHH-PREB-1;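 further: cell viability assay measuring inhibition of proliferation of human MHH-PREB-1 cells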
Description: SANGER: Inhibition of human MHH-PREB-1 cell growth in a cell viability assay.

[35] = tested on: SK-N-FI; format: functional, cell-based, Homo sapiens; details: Homo sapiens, SK-N-FI;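 further: cell viability assay measuring growth inhibition of human SK-N-FI cells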
Description: SANGER: Inhibition of human SK-N-FI cell growth in a cell viability assay.

[36] = tested on: MN-60; format: functional, cell-based, Homo sapiens; details: Homo sapiens, MN-60;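 further: growth inhibition of the MN-60 cell line, determined with a cell viability assay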
Description: SANGER: Inhibition of human MN-60 cell growth in a cell viability assay.

[37] = tested on: LAN-6; format: functional, cell-based, Homo sapiens; details: Homo sapiens, LAN-6;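 further: growth inhibition of LAN-6 cells, determined with a cell viability assay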
Description: SANGER: Inhibition of human LAN-6 cell growth in a cell viability assay.

[38] = tested on: NCI-H1304; format: functional, cell-based, Homo sapiens; details: Homo sapiens, NCI-H1304;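 further: growth inhibition of the cancer cell line, measured in a cell viability assay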
Description: SANGER: Inhibition of human NCI-H1304 cell growth in a cell viability assay.

[39] = tested on: A253 cell line; format: functional, cell-based, Homo sapiens; details: Homo sapiens, A253;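 further: growth inhibition of A253 cells, read out with a cell viability assay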
Description: SANGER: Inhibition of human A253 cell growth in a cell viability assay.

[40] = tested on: Ramos-2G6-4C10; format: functional, cell-based, Homo sapiens; details: Homo sapiens, Ramos-2G6-4C10;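 further: growth inhibition of the cell line, measured by a cell viability read-out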
Description: SANGER: Inhibition of human Ramos-2G6-4C10 cell growth in a cell viability assay.

[41] = tested on: NCI-H1155; format: functional, cell-based, Homo sapiens; details: Homo sapiens, NCI-H1155;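 further: cell growth inhibition measured by a viability assay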
Description: SANGER: Inhibition of human NCI-H1155 cell growth in a cell viability assay.

[42] = tested on: SW982; format: functional, cell-based, Homo sapiens; details: Homo sapiens, SW982;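 further: growth inhibition of SW982 cells, read out with a cell viability assay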
Description: SANGER: Inhibition of human SW982 cell growth in a cell viability assay.

[43] = tested on: HEL; format: functional, cell-based, Homo sapiens; details: Homo sapiens, HEL;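 further: growth inhibition of HEL cells, read out with a cell viability assay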
Description: SANGER: Inhibition of human HEL cell growth in a cell viability assay.

[44] = tested on: NB5; format: functional, cell-based, Homo sapiens; details: Homo sapiens, NB5;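 further: growth inhibition of NB5 cells, read out as cell viability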
Description: SANGER: Inhibition of human NB5 cell growth in a cell viability assay.

[45] = tested on: SNU-5; format: functional, cell-based, Homo sapiens; details: Homo sapiens, SNU-5;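 further: cell viability readout used to measure growth inhibition in human NCI-SNU-5 cells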
Description: SANGER: Inhibition of human NCI-SNU-5 cell growth in a cell viability assay.

[46] = tested on: GT3TKB; format: functional, cell-based, Homo sapiens; details: Homo sapiens, GT3TKB;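 further: growth inhibition of the cell line, read out with a cell viability assay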
Description: SANGER: Inhibition of human GT3TKB cell growth in a cell viability assay.

[47] = tested on: ES4; format: functional, cell-based, Homo sapiens; details: Homo sapiens, ES4;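 further: growth inhibition of human ES4 cells, read out by a cell viability assay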
Description: SANGER: Inhibition of human ES4 cell growth in a cell viability assay.

[48] = tested on: ATN-1; format: functional, cell-based, Homo sapiens; details: Homo sapiens, ATN-1;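 further: growth inhibition of human ATN-1 cells, read out with a cell viability assay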
Description: SANGER: Inhibition of human ATN-1 cell growth in a cell viability assay.

[49] = tested on: KARPAS-299; format: functional, cell-based, Homo sapiens; details: Homo sapiens, KARPAS-299
Description: SANGER: Inhibition of human KARPAS-299 cell growth in a cell viability assay.

SMILES: CCN(CC)CCNC(=O)c1c(C)[nH]c(/C=C2\C(=O)Nc3ccc(F)cc32)c1C [SUNITINIB]
- pIC50 [1]: < 5.10
- pIC50 [2]: 5.63
- pIC50 [3]: < 5.10
- pIC50 [4]: < 5.10
- pIC50 [5]: 5.58
- pIC50 [6]: < 5.10
- pIC50 [7]: 5.76
- pIC50 [8]: < 5.10
- pIC50 [9]: < 5.10
- pIC50 [10]: < 5.10
- pIC50 [11]: < 5.10
- pIC50 [12]: < 5.10
- pIC50 [13]: < 5.10
- pIC50 [14]: < 5.10
- pIC50 [15]: 5.20
- pIC50 [16]: < 5.10
- pIC50 [17]: < 5.10
- pIC50 [18]: < 5.10
- pIC50 [19]: 5.82
- pIC50 [20]: < 5.10
- pIC50 [21]: < 5.10
- pIC50 [22]: < 5.10
- pIC50 [23]: < 5.10
- pIC50 [24]: < 5.10
- pIC50 [25]: < 5.10
- pIC50 [26]: < 5.10
- pIC50 [27]: 5.77
- pIC50 [28]: 5.67
- pIC50 [29]: < 5.10
- pIC50 [30]: 6.21
- pIC50 [31]: < 5.10
- pIC50 [32]: < 5.10
- pIC50 [33]: < 5.10
- pIC50 [34]: 5.27
- pIC50 [35]: < 5.10
- pIC50 [36]: 5.12
- pIC50 [37]: < 5.10
- pIC50 [38]: < 5.10
- pIC50 [39]: < 5.10
- pIC50 [40]: < 5.10
- pIC50 [41]: < 5.10
- pIC50 [42]: 5.34
- pIC50 [43]: 5.46
- pIC50 [44]: < 5.10
- pIC50 [45]: < 5.10
- pIC50 [46]: 5.18
- pIC50 [47]: 5.55
- pIC50 [48]: 5.44
- pIC50 [49]: 5.68

SMILES: Cc1cc([N+](=O)[O-])ccc1NS(=O)(=O)c1cc(Cl)ccc1Cl
- pIC50 [1]: 4.97
- pIC50 [2]: 5.24
- pIC50 [3]: 4.65
- pIC50 [4]: 5.40
- pIC50 [5]: 4.72
- pIC50 [6]: < 4.49
- pIC50 [7]: 5.30
- pIC50 [8]: 5.35
- pIC50 [9]: 4.83
- pIC50 [10]: 4.68
- pIC50 [11]: < 4.49
- pIC50 [12]: 5.52
- pIC50 [13]: 5.14
- pIC50 [14]: 4.73
- pIC50 [15]: 5.14
- pIC50 [16]: 4.95
- pIC50 [17]: 4.98
- pIC50 [18]: < 4.49
- pIC50 [19]: 5.49
- pIC50 [20]: 4.61
- pIC50 [21]: 5.57
- pIC50 [22]: < 4.49
- pIC50 [23]: 5.40
- pIC50 [24]: 4.92
- pIC50 [25]: < 4.49
- pIC50 [26]: 5.53
- pIC50 [27]: 4.90
- pIC50 [28]: 5.34
- pIC50 [29]: < 4.49
- pIC50 [30]: < 4.49
- pIC50 [31]: 5.37
- pIC50 [32]: 5.94
- pIC50 [33]: < 4.49
- pIC50 [34]: 5.23
- pIC50 [35]: 4.78
- pIC50 [36]: 4.57
- pIC50 [37]: 4.69
- pIC50 [38]: < 4.49
- pIC50 [39]: 5.23
- pIC50 [40]: 5.22
- pIC50 [41]: < 4.49
- pIC50 [42]: 5.04
- pIC50 [43]: 5.16
- pIC50 [44]: 4.84
- pIC50 [45]: < 4.49
- pIC50 [46]: 5.54
- pIC50 [47]: 5.12
- pIC50 [48]: < 4.49
- pIC50 [49]: < 4.49

SMILES: Nc1ccn([C@@H]2O[C@H](CO)[C@@H](O)C2(F)F)c(=O)n1 [GEMCITABINE]
- pIC50 [1]: > 8.40
- pIC50 [2]: 8.10
- pIC50 [3]: 6.72
- pIC50 [4]: 6.90
- pIC50 [5]: 7.64
- pIC50 [6]: 8.84
- pIC50 [7]: 7.85
- pIC50 [8]: < 5.99
- pIC50 [9]: 7.59
- pIC50 [10]: < 5.99
- pIC50 [11]: < 5.99
- pIC50 [12]: 8.23
- pIC50 [13]: 7.42
- pIC50 [14]: > 8.40
- pIC50 [15]: 7.63
- pIC50 [16]: < 5.99
- pIC50 [17]: 7.67
- pIC50 [18]: 7.28
- pIC50 [19]: > 8.40
- pIC50 [20]: < 5.99
- pIC50 [21]: 6.72
- pIC50 [22]: 6.78
- pIC50 [23]: 6.92
- pIC50 [24]: 7.58
- pIC50 [25]: < 5.99
- pIC50 [26]: 7.03
- pIC50 [27]: 6.78
- pIC50 [28]: > 8.40
- pIC50 [29]: 6.34
- pIC50 [30]: 8.20
- pIC50 [31]: < 5.99
- pIC50 [32]: 7.19
- pIC50 [33]: < 5.99
- pIC50 [34]: 6.61
- pIC50 [35]: < 5.99
- pIC50 [36]: < 5.99
- pIC50 [37]: < 5.99
- pIC50 [38]: 6.42
- pIC50 [39]: 6.99
- pIC50 [40]: 6.18
- pIC50 [41]: 6.31
- pIC50 [42]: > 8.40
- pIC50 [43]: 8.75
- pIC50 [44]: < 5.99
- pIC50 [45]: 7.92
- pIC50 [46]: 7.37
- pIC50 [47]: > 8.40
- pIC50 [48]: > 8.40
- pIC50 [49]: 6.60
